The source made the active and inactive calls. Bounds are passed on as bounds.

Results on two compounds are retold here after ChEMBL document CHEMBL1201862, “PubChem BioAssay data set” (2004).

Experiment [1] addresses T1, Endoribonuclease toxin MazF (Escherichia coli K-12, UniProt P0AE70).
T1 sequence (P0AE70 whole entry): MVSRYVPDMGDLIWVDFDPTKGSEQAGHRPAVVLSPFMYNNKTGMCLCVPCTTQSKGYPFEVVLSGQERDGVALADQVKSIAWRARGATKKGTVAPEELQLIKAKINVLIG
Kind of experiment: SAR analysis of small molecule activators of the MazEF TA System via a fluorescence-based single-stranded RNase assay counterscreen. [Related pubchem assays (depositor defined):AID504720, AID504743]. The experiment is classed as functional. (The purpose of a counterscreen is to sort out artefacts and off-target activity.)

Experiment [2] concerns the target T1, Endoribonuclease toxin MazF. Kind of experiment: MazEF toxin-antitoxin RNase activation – biochemical, fluorescence, single-stranded RNA substrate, SAR follow-up (AID 588603). It is filed as functional.
Experiment [3] has the same target. Kind of experiment: activation of MazEF endoribonuclease cleavage – biochemical, fluorescence, single-stranded RNA substrate, uHTS hits, dose response (AID 588481). It is filed as functional.
The target is the same in experiment [4]. Kind of experiment: substrate-only fluorescence increase artefacts – biochemical, single-stranded RNase substrate, counter-screen for MazEF activator project, dose response (AID 588502). The experiment is classed as functional.
The subject of experiment [5] is MEF. Kind of experiment: SAR analysis of small molecule cytotoxicity of MazEF TA System activators in embryonic fibroblast (MEF) cells. [Related pubchem assays (depositor defined):AID504720, AID504743]. The experiment is classed as functional. To be noted: Mus musculus.
Experiment [6] deals with CHO. Kind of experiment: CHO cell viability loss, potency – luminescence, cytotoxicity control for TLR9-MyD88 binding inhibitor project, dose response (AID 588339).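 Further: CHO cells stably coexpressing TLR9 and MyD88 fusions from primary screen; compound exposure lasted 48 hours before viability readout.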 The experiment is classed as functional, cell-based, hamster. The note with it: Cricetulus griseus.
Experiment [7] concerns the target Beta Lactamase (Pseudomonas aeruginosa, UniProt Q932Y6). Kind of experiment: BLA reporter interference, concentration series – BLA reporter cells, FRET fluorescence, artefact control for TLR9-MyD88 binding inhibitor project, dose response (AID 588341).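 Further: cell based assay in CHO-K1 cells stably expressing beta-lactamase.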 The experiment is classed as cell-based.

Beta Lactamase, sequence (Q932Y6 whole entry): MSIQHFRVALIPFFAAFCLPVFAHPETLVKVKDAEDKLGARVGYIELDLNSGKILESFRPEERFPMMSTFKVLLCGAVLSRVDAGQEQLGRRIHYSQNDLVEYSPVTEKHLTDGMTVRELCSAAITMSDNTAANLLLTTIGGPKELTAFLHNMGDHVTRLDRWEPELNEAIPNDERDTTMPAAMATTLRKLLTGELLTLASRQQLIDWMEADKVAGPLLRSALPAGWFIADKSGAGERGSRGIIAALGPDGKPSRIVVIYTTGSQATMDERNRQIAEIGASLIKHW

As to `N=c1c2c(ncn1CCCO)Oc1cc(O)ccc1C2c1ccccc1` (configuration not stated), the EC50 – broadly, the concentration needed to bring the measured effect to its halfway point – was 78.8 µM (inactive) in experiment [1], 6.2 µM (active) in experiment [2], 6.82 µM (active) in experiment [3] and > 99 µM (inactive) in experiment [4]. Also, the CC50 (as a rule, the concentration at which the toxic effect on the cells reaches its halfway point) in experiment [5] was > 99 µM (inactive).

On to `CCN(CC)c1ccc(/C=C/C(=O)C2C(=O)C=C(C)OC2=O)cc1` (configuration not stated), for which the results for the IC50 in experiment [6] and in experiment [7] were > 49.7 µM (inactive) and 4.88 µM (active), respectively.
